According to PMC8410034, “A variant of ASIC2 mediates sodium retention in nephrotic syndrome” (JCI Insight, 2021):

Assays:
ASIC2a = molecular target: T1, ASIC2a (Rattus norvegicus, UniProt Q62962); test: two-electrode voltage clamp, X. laevis oocytes; type: cell-based; details: acid-induced (pH 4) plateau current, -70 mV
T1 construct: gene Asic2; full-length, expressed alone in X. laevis oocytes (3 ng cRNA, pGH19); homotrimer
T1 sequence (Q62962 1-512): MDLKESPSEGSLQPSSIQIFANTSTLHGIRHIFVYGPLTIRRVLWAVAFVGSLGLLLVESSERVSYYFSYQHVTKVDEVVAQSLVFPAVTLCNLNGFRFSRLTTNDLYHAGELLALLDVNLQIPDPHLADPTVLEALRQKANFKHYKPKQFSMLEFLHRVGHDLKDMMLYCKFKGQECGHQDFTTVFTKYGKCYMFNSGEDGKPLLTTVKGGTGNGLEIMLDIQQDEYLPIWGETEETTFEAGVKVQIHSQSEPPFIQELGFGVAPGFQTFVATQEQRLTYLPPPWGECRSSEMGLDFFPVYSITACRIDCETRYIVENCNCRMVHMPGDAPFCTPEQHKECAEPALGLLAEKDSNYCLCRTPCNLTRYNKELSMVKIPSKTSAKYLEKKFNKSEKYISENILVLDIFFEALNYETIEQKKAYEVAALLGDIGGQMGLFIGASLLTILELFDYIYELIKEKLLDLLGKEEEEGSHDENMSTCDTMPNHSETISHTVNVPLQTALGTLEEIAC

ASIC2a/t-ASIC2b = molecular target: T2, ASIC2a/t-ASIC2b (Rattus norvegicus, UniProt A0A0G3F2N6+Q62962); test: two-electrode voltage clamp, X. laevis oocytes; type: cell-based
T2 construct: gene Asic2; X. laevis oocytes injected with 3 ng Asic2a + 6 ng Asic2b-type cRNA; t-ASIC2b lacks first 71 N-terminal residues; heterotrimer, stoichiometry unknown (mix with 0, 1 or 2 t-ASIC2b)
T2 sequence (A0A0G3F2N6 1-492): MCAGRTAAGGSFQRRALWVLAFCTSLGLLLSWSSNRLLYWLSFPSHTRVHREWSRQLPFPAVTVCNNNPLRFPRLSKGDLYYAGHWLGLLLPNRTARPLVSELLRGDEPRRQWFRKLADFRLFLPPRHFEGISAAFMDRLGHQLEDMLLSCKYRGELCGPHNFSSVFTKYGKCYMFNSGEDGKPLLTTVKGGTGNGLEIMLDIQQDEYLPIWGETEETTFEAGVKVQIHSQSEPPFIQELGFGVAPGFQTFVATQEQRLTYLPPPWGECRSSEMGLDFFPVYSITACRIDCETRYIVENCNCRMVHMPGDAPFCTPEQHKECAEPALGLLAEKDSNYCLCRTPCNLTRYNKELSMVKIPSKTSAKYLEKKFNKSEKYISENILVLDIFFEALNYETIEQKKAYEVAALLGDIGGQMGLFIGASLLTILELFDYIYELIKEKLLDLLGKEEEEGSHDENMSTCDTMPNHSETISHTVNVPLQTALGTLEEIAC
T2 sequence (Q62962 1-563 isoform Q62962-2): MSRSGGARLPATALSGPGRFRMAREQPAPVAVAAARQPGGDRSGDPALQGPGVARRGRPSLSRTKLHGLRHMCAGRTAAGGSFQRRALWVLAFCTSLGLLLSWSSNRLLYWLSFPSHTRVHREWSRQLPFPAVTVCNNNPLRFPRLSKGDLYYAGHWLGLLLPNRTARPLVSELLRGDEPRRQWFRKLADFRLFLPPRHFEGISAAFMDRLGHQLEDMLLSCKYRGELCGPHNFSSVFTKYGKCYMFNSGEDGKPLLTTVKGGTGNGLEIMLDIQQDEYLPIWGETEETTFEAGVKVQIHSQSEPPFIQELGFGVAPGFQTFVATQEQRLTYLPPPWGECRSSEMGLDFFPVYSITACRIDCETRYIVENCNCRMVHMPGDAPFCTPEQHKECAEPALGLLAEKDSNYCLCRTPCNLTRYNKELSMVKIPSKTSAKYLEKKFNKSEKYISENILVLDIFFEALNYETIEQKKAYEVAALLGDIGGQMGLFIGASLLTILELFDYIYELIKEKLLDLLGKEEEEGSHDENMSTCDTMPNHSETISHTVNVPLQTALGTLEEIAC

N=C(N)NC(=O)c1nc(Cl)c(N)nc1N [amiloride]
% inhibition at 100 μM (ASIC2a): did not alter significantly the apparent low sensitivity of ASIC2a to amiloride | IC50 (ASIC2a/t-ASIC2b): ~50 µM
